Experimental data: US20150017667A1, “MEANS AND METHODS FOR ASSESSING LIVER DISORDERS” (BASF SE, priority 2012, published 2015)
Where a name gives a salt, the structure may show the parent alone. Marks after values point to notes of the source that are not given here.

Tested on: male rats
Assay: 28-day repeated dose oral toxicity study (OECD 407) with GC-MS/LC-MS plasma metabolite profiling, male rats
Format: in vivo, rat
Settings: plasma
Text: Drinking water was also offered ad libitum.
The samples were centrifuged for generation of plasma.

## CN(CCOc1ccc(CC2SC(=O)NC2=O)cc1)c1ccccn1 (stereo not drawn) [Rosiglitazone maleate]
Day 7
  Alanine, ratio versus control: 0.78*
  Citrulline, ratio versus control: 0.88*
  Isoleucine, ratio versus control: 0.7*
  Leucine, ratio versus control: 0.74*
  Lysine, ratio versus control: 0.78*
  Ornithine, ratio versus control: 0.85*
  Phenylalanine, ratio versus control: 0.85*
  Phosphate (inorganic and organic phosphates), ratio versus control: 0.76*
  Phosphatidylcholine (C16:0,C16:0), ratio versus control: 1.14*
  Proline, ratio versus control: 0.89*
  Valine, ratio versus control: 0.74*
Day 7 (Table 4a)
  Phosphatidylcholine (C16:0,C20:5), ratio versus control: 1.07*
Day 7 (Table 4b)
  Docosahexaenoic acid (C22:cis[4,7,10,13,16,19]6), ratio versus control: 0.57*
  Phosphatidylcholine (C18:0,C22:6), ratio versus control: 0.87*
  Threonine, ratio versus control: 0.74*
Day 14
  Alanine, ratio versus control: 0.83*
  Citrulline, ratio versus control: 0.79
  Isoleucine, ratio versus control: 0.72*
  Leucine, ratio versus control: 0.66*
  Lysine, ratio versus control: 0.77*
  Ornithine, ratio versus control: 0.86*
  Phenylalanine, ratio versus control: 0.84*
  Phosphate (inorganic and organic phosphates), ratio versus control: 0.66*
  Phosphatidylcholine (C16:0,C16:0), ratio versus control: 1.22*
  Proline, ratio versus control: 0.88*
  Valine, ratio versus control: 0.74*
Day 14 (Table 4a)
  Phosphatidylcholine (C16:0,C20:5), ratio versus control: 1.11*
Day 14 (Table 4b)
  Docosahexaenoic acid (C22:cis[4,7,10,13,16,19]6), ratio versus control: 0.66*
  Phosphatidylcholine (C18:0,C22:6), ratio versus control: 0.9*
  Threonine, ratio versus control: 0.74*
Day 28
  Alanine, ratio versus control: 0.88*
  Citrulline, ratio versus control: 0.86*
  Isoleucine, ratio versus control: 0.78*
  Leucine, ratio versus control: 0.78*
  Lysine, ratio versus control: 0.86*
  Ornithine, ratio versus control: 0.78*
  Phenylalanine, ratio versus control: 0.81*
  Phosphate (inorganic and organic phosphates), ratio versus control: 0.69*
  Phosphatidylcholine (C16:0,C16:0), ratio versus control: 1.07
  Proline, ratio versus control: 0.93*
  Valine, ratio versus control: 0.84*
Day 28 (Table 4a)
  Phosphatidylcholine (C16:0,C20:5), ratio versus control: 1.06
Day 28 (Table 4b)
  Docosahexaenoic acid (C22:cis[4,7,10,13,16,19]6), ratio versus control: 0.83*
  Phosphatidylcholine (C18:0,C22:6), ratio versus control: 0.84*
  Threonine, ratio versus control: 0.87*
